Experimental data reported in patent publication US20130344026A1, “Dimeric Smac Mimetics” (priority 2009, published 2013).
*1 amine or outer side, *2 acyl side, *3 side chain or, on linkers, in order; H or OH if unused. Where a SMILES comes first, the peptide text is derived from it. Bridges are numbered along the chain shown (N, C = ends). Roman numbers before positions name the chains, in order. [ ]: non-standard residue; d: D form. NH(CH2)8NH = C(CCCCN[*:2])CCCN[*:1]; Chg = N[C@H](C(=O)O)C1CCCCC1; Tle = CC(C)(C)[C@H](N)C(=O)O; NMeA = CN[C@@H](C)C(=O)O

tested on: HCC461; experiment: cell viability assay in HCC461, compound alone; assay type: cell-based; details: HCC461, HCC461; Tables 6-9; read-out: IC50 (μM) in cell viability assay in HCC461

SMILES | IC50
CN[C@@H](C)C(=O)NC(C(=O)N1C[C@@H](NC(=O)c2cccc(C(=O)NCCCC[C@H](NC(=O)[C@H](C)NC)C(=O)NC(C(=O)N3CCCCC3)C(C)(C)C)c2)C[C@H]1C(=O)N[C@@H]1CCCc2ccccc21)C(C)(C)C (stereo partly shown) [Compound 151] | 0.297 µM
CN[C@@H](C)C(=O)N[C@@H](CCCCNC(=O)c1cccc(C(=O)N[C@H]2CCN(C(=O)[C@@H](NC(=O)[C@H](C)NC)C(C)(C)C)C2)c1)C(=O)N1CCC[C@H]1C(=O)N[C@@H]1CCCc2ccccc21 [Compound 135] | 12.1 µM
CN[C@@H](C)C(=O)N[C@H](C(=O)N1C[C@@H](NC(=O)c2cccc(C(=O)N[C@H]3C[C@@H](C(=O)N[C@H](C)C(C)C)N(C(=O)[C@@H](NC(=O)[C@H](C)NC)C(C)(C)C)C3)c2)C[C@H]1C(=O)N[C@@H]1CCCc2ccccc21)C(C)(C)C [Compound 132] | 0.017 µM
CN[C@@H](C)C(=O)N[C@H](C(=O)N[C@@H](CCCCNC(=O)c1cccc(C(=O)N[C@H]2CC(C(=O)N[C@H](C)c3ccccc3)N(C(=O)[C@@H](NC(=O)[C@H](C)NC)C(C)(C)C)C2)c1)C(=O)N[C@@H](C)C(C)C)C(C)C (stereo partly shown) [Compound 162] | > 30 µM
CN[C@@H](C)C(=O)NC(C(=O)N1C[C@@H](NC(=O)c2cccc(C(=O)NCCCC[C@H](NC(=O)C(NC(C)[C@H](C)NC)C(C)(C)C)C(=O)N3CCCCC3)c2)C[C@H]1C(=O)N[C@@H]1CCCc2ccccc21)C(C)(C)C (stereo partly shown) [Compound 152] | 0.447 µM
CN[C@@H](C)C(=O)N[C@@H](CCCCNC(=O)c1cccc(C(=O)N[C@H]2C[C@@H](C(=O)N[C@@H]3CCCc4ccccc43)N(C(=O)[C@@H](NC(=O)[C@H](C)NC)C(C)(C)C)C2)c1)C(=O)N1CCC[C@H]1C(=O)N[C@@H]1CCCc2ccccc21 [Compound 134] | 0.058 µM

same assay, conditions: HCC461, HCC461; Tables 15-18; read-out: IC50 (uM) in cell viability assay in HCC461

SMILES | IC50
CN[C@@H](C)C(=O)N[C@H](C(=O)N1CCC[C@H]1C(=O)N[C@H](C(=O)NCCCCCCCCNC(=O)[C@@H](NC(=O)[C@@H]1CCCN1C(=O)[C@@H](NC(=O)[C@H](C)NC)C(C)(C)C)C1CCCCC1)C1CCCCC1)C(C)(C)C [Compound P4-7] (I: H-[NMeA][Tle]P[Chg] / II: H-[NMeA][Tle]P[Chg]; linker I:C-II:C via NH(CH2)8NH) | 0.205 µM
CN[C@@H](C)C(=O)N[C@H](C(=O)N1CCC[C@H]1C(=O)N[C@H](CNC(=O)c1ccc(C(=O)NC[C@@H](NC(=O)[C@@H]2CCCN2C(=O)[C@@H](NC(=O)[C@H](C)NC)C(C)(C)C)C2CCCCC2)cc1)C1CCCCC1)C(C)(C)C [Compound P4-8] | 0.2 µM
CN[C@@H](C)C(=O)N[C@H](C(=O)N1CCC[C@H]1C(=O)NC1c2ccccc2-c2ccccc21)[C@@H](C)OCC#CC#CCO[C@H](C)[C@H](NC(=O)[C@H](C)NC)C(=O)N1CCC[C@H]1C(=O)NC1c2ccccc2-c2ccccc21 [Compound P2-15] | 0.07 µM
CN[C@@H](C)C(=O)N[C@@H](COCCCCCCOC[C@H](NC(=O)[C@H](C)NC)C(=O)N1CCCC1C(=O)N[C@@H]1CCCc2ccccc21)C(=O)N1CCCC1C(=O)N[C@@H]1CCCc2ccccc21 (stereo partly shown) [Compound P2-20] | 0.043 µM

same assay, conditions: HCC461, HCC461 cells, compound alone; read-out: IC50 (uM) in cell viability assay in HCC461

SMILES | IC50
CN[C@@H](C)C(=O)N[C@H](C(=O)N1C[C@@H](NC(=O)c2cc(N)cc(C(=O)N[C@H]3C[C@@H](C(=O)NC4c5ccccc5-c5ccccc54)N(C(=O)[C@@H](NC(=O)[C@H](C)NC)C(C)(C)C)C3)c2)C[C@H]1C(=O)NC1c2ccccc2-c2ccccc21)C(C)(C)C [Compound P3-61] | 0.02 µM
CN[C@@H](C)C(=O)N[C@H](C(=O)N1C[C@@H](NC(=O)/C=C/C(=O)N[C@H]2C[C@@H](C(=O)N[C@H](C)c3ccccc3)N(C(=O)[C@@H](NC(=O)[C@H](C)NC)C(C)(C)C)C2)C[C@H]1C(=O)N[C@H](C)c1ccccc1)C(C)(C)C [Compound P3-75] | 0.057 µM
CN[C@@H](C)C(=O)N[C@H](C(=O)N1C[C@@H](NC(=O)[C@H]2CC[C@H](C(=O)N[C@H]3C[C@@H](C(=O)N[C@@H]4CCCc5ccccc54)N(C(=O)[C@@H](NC(=O)[C@H](C)NC)C(C)(C)C)C3)CC2)C[C@H]1C(=O)N[C@@H]1CCCc2ccccc21)C(C)(C)C [Compound P3-31] | 0.002 µM
CN[C@@H](C)C(=O)N[C@H](C(=O)N1C[C@@H](NC(=O)c2cc(C(=O)N[C@H]3C[C@@H](C(=O)N[C@H](C)c4ccccc4)N(C(=O)[C@@H](NC(=O)[C@H](C)NC)C(C)C)C3)[nH]n2)C[C@H]1C(=O)N[C@H](C)c1ccccc1)C(C)C [Compound P3-82] | 0.063 µM
CN[C@@H](C)C(=O)N[C@H](C(=O)N1C[C@@H](n2cc(CNC(=O)c3cccc(C(=O)NCc4cn([C@H]5C[C@@H](C(=O)N[C@@H]6CCCc7ccccc76)N(C(=O)[C@@H](NC(=O)[C@H](C)NC)C(C)(C)C)C5)nn4)c3)nn2)C[C@H]1C(=O)N[C@@H]1CCCc2ccccc21)C(C)(C)C [Compound P3-7] | 0.007 µM
CN[C@@H](C)C(=O)N[C@H](C(=O)N1C[C@@H](NC(=O)C2CCCC(C(=O)N[C@H]3C[C@@H](C(=O)N[C@H](C)C4CCCCC4)N(C(=O)[C@@H](NC(=O)[C@H](C)NC)C(C)(C)C)C3)C2)C[C@H]1C(=O)N[C@H](C)C1CCCCC1)C(C)(C)C (stereo partly shown) [Compound P3-46] | 0.024 µM
CN[C@@H](C)C(=O)N[C@H](C(=O)N1C[C@@H](NC(=O)Cc2ccc(CC(=O)N[C@H]3C[C@@H](C(=O)N[C@@H]4CCCc5ccccc54)N(C(=O)[C@@H](NC(=O)[C@H](C)NC)C(C)(C)C)C3)cc2)C[C@H]1C(=O)N[C@@H]1CCCc2ccccc21)C(C)(C)C [Compound P3-18] | 0.008 µM
CC[C@H](C)C(NC(=O)[C@H](C)NC)C(=O)N1C[C@@H](NC(=O)c2cc(OC)cc(C(=O)N[C@H]3C[C@@H](C(=O)N[C@H](C)c4ccccc4)N(C(=O)C(NC(=O)[C@H](C)NC)[C@@H](C)CC)C3)c2)C[C@H]1C(=O)NC(C)c1ccccc1 (stereo partly shown) [Compound P3-74] | 0.072 µM
CN[C@@H](CO)C(=O)N[C@H](C(=O)N1C[C@@H](NC(=O)c2cccc(C(=O)N[C@H]3C[C@@H](C(=O)N[C@H](C)c4ccccc4)N(C(=O)[C@@H](NC(=O)[C@H](CO)NC)C(C)C)C3)c2)C[C@H]1C(=O)N[C@H](C)c1ccccc1)C(C)C [Compound P3-89] | 0.073 µM
CN[C@@H](C)C(=O)N[C@H](C(=O)N1C[C@@H](NC(=O)c2cc(N)cc(C(=O)N[C@H]3C[C@@H](C(=O)N[C@H](C)c4ccccc4)N(C(=O)[C@@H](NC(=O)[C@H](C)NC)C(C)(C)C)C3)c2)C[C@H]1C(=O)N[C@H](C)c1ccccc1)C(C)(C)C [Compound P3-52] | 0.044 µM
CN[C@@H](C)C(=O)N[C@H](C(=O)N1C[C@@H](NC(=O)c2cccc(C(=O)N[C@H]3C[C@@H](C(=O)N[C@@H]4CCCc5ccccc54)N(C(=O)[C@@H](NC(=O)[C@H](C)NC)C(C)C)C3)c2)C[C@H]1C(=O)N[C@@H]1CCCc2ccccc21)C(C)C [Compound P3-55] | 0.017 µM
CN[C@@H](C)C(=O)N[C@H](C(=O)N1C[C@@H](n2cc(CCCc3cn([C@H]4C[C@@H](C(=O)N[C@H](C)c5ccccc5)N(C(=O)[C@@H](NC(=O)[C@H](C)NC)C(C)(C)C)C4)nn3)nn2)C[C@H]1C(=O)N[C@H](C)c1ccccc1)C(C)(C)C [Compound P3-87] | 0.028 µM
CN[C@@H](C)C(=O)N[C@H](C(=O)N1C[C@@H](NC(=O)c2cccnc2-c2ncccc2C(=O)N[C@H]2C[C@@H](C(=O)NC3CCCc4ccccc43)N(C(=O)[C@@H](NC(=O)[C@H](C)NC)C(C)(C)C)C2)CC1C(=O)N[C@@H]1CCCc2ccccc21)C(C)(C)C (stereo partly shown) [Compound P3-39] | 0.006 µM
CN[C@@H](C)C(=O)N[C@H](C(=O)N1C[C@@H](NC(=O)c2nc[nH]c2C(=O)N[C@H]2C[C@@H](C(=O)N[C@@H]3CCCc4ccccc43)N(C(=O)[C@@H](NC(=O)[C@H](C)NC)C(C)(C)C)C2)C[C@H]1C(=O)N[C@@H]1CCCc2ccccc21)C(C)(C)C [Compound P3-36] | 2.38 µM
CC[C@H](C)[C@H](NC(=O)[C@H](C)NC)C(=O)N1C[C@@H](NC(=O)/C=C/C(=O)N[C@H]2C[C@@H](C(=O)N[C@H](C)c3ccccc3)N(C(=O)[C@@H](NC(=O)[C@H](C)NC)[C@@H](C)CC)C2)C[C@H]1C(=O)N[C@H](C)c1ccccc1 [Compound P3-76] | 0.036 µM
CN[C@@H](C)C(=O)N[C@H](C(=O)N1C[C@@H](NC(=O)c2ccc(-c3ccc(C(=O)N[C@H]4C[C@@H](C(=O)NC5CCCc6ccccc65)N(C(=O)[C@@H](NC(=O)[C@H](C)NC)C(C)(C)C)C4)cn3)nc2)CC1C(=O)N[C@@H]1CCCc2ccccc21)C(C)(C)C (stereo partly shown) [Compound P3-40] | 0.005 µM
CN[C@@H](C)C(=O)N[C@H](C(=O)N1C[C@@H](NC(=O)C[C@H](NC(C)=O)C(=O)N[C@H]2C[C@@H](C(=O)N[C@@H]3CCCc4ccccc43)N(C(=O)[C@@H](NC(=O)[C@H](C)NC)C(C)(C)C)C2)C[C@H]1C(=O)N[C@@H]1CCCc2ccccc21)C(C)(C)C [Compound P3-67] | 0.214 µM

same assay, conditions: HCC461; Tables 6-9; read-out: IC50 (μM) in cell viability assay in HCC461

SMILES | IC50
CN[C@@H](C)C(=O)N[C@@H](CCC(=O)N[C@H]1CC(C(=O)N[C@@H]2CCc3ccccc3C2)N(C(=O)[C@@H](NC(=O)[C@H](C)NC)C(C)(C)C)C1)C(=O)N[C@H](C(=O)N[C@@H](C)C(C)C)C(C)(C)C (stereo partly shown) [Compound 163] | > 30 µM

same assay, conditions: HCC461 cells, compound alone; read-out: IC50 (uM) in cell viability assay in HCC461

SMILES | IC50
CN[C@@H](C)C(=O)N[C@H](C(=O)N1C[C@@H](NC(=O)c2cccc(C(=O)N[C@H]3C[C@@H](C(=O)NC4CCCC5CCCCC54)N(C(=O)[C@@H](NC(=O)[C@H](C)NC)C(C)(C)C)C3)c2)C[C@H]1C(=O)NC1CCCC2CCCCC21)C(C)(C)C (stereo partly shown) [Compound P3-60] | 0.311 µM
CN[C@@H](C)C(=O)N[C@H](C(=O)N1C[C@@H](NC(=O)c2cccc(C(=O)N[C@H]3C[C@@H](C(=O)NC4CCCC5CCCCC54)N(C(=O)[C@@H](NC(=O)[C@H](C)NC)C(C)(C)C)C3)c2)C[C@H]1C(=O)NC1CCCC2CCCCC21)C(C)(C)C (stereo partly shown) [Compound P3-57] | 1.69 µM
CN[C@@H](C)C(=O)N[C@H](C(=O)N1C[C@@H](NC(=O)C2CCCC(C(=O)N[C@H]3C[C@@H](C(=O)NC4CCCc5ccccc54)N(C(=O)[C@@H](NC(=O)[C@H](C)NC)C(C)(C)C)C3)C2)CC1C(=O)N[C@@H]1CCCc2ccccc21)C(C)(C)C (stereo partly shown) [Compound P3-17] | 0.002 µM
